The text below walks through data of patent US5192672A, “Method for oxidizing hydrocarbons with a hydroxylase from a methane monooxygenase” (Amoco Corporation, priority 1991, dated 1993).

Values after ≈ are worked out from the molar mass of the structure shown.

Series [1] concerns the target T1, hydroxylase of methane monooxygenase (Methylosinus trichosporium, UniProt P27353).
T1 construct: The novel high activity hydroxylase of the present invention was obtained from Methylosinus trichosporium OB3b; endogenous in cells; host or cells: Methylosinus trichosporium OB3b; hydroxylase purified from the bacteria
T1 sequence (P27353 1-526): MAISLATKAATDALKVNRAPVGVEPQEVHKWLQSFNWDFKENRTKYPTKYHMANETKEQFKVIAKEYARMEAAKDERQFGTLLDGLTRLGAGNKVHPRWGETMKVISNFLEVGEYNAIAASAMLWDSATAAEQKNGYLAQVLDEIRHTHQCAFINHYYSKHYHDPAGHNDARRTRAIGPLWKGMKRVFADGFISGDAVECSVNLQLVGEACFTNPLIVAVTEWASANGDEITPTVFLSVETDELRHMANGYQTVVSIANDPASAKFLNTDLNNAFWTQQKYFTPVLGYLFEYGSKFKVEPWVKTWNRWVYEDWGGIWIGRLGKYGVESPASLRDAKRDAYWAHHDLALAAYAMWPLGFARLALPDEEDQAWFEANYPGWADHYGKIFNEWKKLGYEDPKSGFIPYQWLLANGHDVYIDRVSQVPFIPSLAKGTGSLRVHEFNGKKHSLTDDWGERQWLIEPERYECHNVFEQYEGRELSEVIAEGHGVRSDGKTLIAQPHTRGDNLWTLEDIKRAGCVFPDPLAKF
T1 sequence (P27354 1-394 partner): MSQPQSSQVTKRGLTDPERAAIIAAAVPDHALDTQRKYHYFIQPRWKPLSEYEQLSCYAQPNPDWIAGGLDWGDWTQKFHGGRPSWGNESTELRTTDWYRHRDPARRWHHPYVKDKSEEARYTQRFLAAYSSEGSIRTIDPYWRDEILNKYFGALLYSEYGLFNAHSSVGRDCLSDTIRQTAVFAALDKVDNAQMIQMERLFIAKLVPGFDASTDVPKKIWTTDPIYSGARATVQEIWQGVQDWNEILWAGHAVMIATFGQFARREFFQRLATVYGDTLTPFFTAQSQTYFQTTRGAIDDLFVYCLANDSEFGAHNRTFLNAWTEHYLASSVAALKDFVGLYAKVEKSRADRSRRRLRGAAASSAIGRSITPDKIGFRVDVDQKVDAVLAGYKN
T1 sequence (P27355 1-169 partner): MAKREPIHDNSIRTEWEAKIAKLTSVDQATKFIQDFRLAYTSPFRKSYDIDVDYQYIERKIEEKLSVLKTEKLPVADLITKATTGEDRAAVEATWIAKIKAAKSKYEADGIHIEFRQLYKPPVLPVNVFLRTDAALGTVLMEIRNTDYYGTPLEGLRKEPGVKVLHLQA
The series can be described thus: Multiple turnover oxidation of hydrocarbon substrates using hydrogen peroxide. Type of series: biochemical, Methylosinus trichosporium OB3b. The conditions noted are these: H2O2 coupled. As to the method: . Substrates were injected into the respective reaction vials as follows: gaseous substrates (3 ml) were injected into the headspace of the reaction vial; liquid substrates (50 μls) were injected directly into the protein solution. The protein solution and substrate were allowed to equilibrate for five minutes in a water bath shaker at 30° C. Each reaction was initiated by injection of H2 O2 (20 μl of 1.0 MH2 O2 in water) to a concentration of about 100 mM H2 O2. After an appropriate period (2 minutes) a portion of the reaction mixture was removed, the reaction terminated, and the sample prepared for analysis.
Samples were analyzed for products as follows: The benzene, substituted benzenes and pyridine samples were analyzed by High Pressure Liquid Chromatography (HPLC). The reaction in each sample was quenched by addition of 2 volumes of ethanol or 3% trichloroacetic acid which caused precipitation of the hydroxylase. The samples were centrifuged for two minutes (10,800×g) and the precipitated hydroxylase removed. A portion of each supernatant was injected into a Beckman HPLC equipped with a reverse-phase column (C18 matrix) and UV detection capability.
All other samples were analyzed by gas chromatography. Except for the methane sample, all analyses were performed as follows: The reaction in each sample was quenched by addition of an equal volume chloroform (CHCl3) followed by vortexing for a brief period. The sample was centrifuged for two minutes (10,800×g) to separate the CHCl3 layer from the sample solution. A portion of the CHCl3 layer was injected into a Hewlett Packard 5890A gas chromatograph (100% methylsilicone column matrix) for analysis of the products.
For the methane sample, the reaction was quenched by addition of 0.1M acid to a pH of 2.9. The resulting aqueous phase was separated from the hydroxylase using a YM30 Centricon ultrafiltration unit. The filtrate was analyzed for methanol by gas chromatography.
Products resulting from the various substrates were identified by comparison with standard compounds.

For series [2] the following is noted: 90 psi propane, up to two days, t-butyl peroxide; cited from earlier work.
Series [3] can be described thus: physchem. In kind it is physicochemical. The conditions noted are these: water, 30° C.
The target of series [4] is T2, complete methane monooxygenase (Methylosinus trichosporium, UniProt P27353).
T2 construct: A soluble three-component methane monooxygenase from the Type II methanotroph Methylosinus trichosporium OB3b was purified to homogeneity; endogenous in cells; host or cells: Methylosinus trichosporium OB3b, grown on methane; components purified from cell-free extract
T2 sequence (P27353 1-526): T1 sequence (P27353 1-526)
T2 sequence (P27354 1-394 partner): T1 sequence (P27354 1-394 partner)
T2 sequence (P27355 1-169 partner): T1 sequence (P27355 1-169 partner)
Nature of the series: Polarographic assay of methane monooxygenase activity with furan as substrate. Type of series: biochemical, Methylosinus trichosporium OB3b. The method, then:
Enzyme Assays--Assays of bacterial cells were performed at 30° C. using cells harvested directly from the fermentor vessel. Methane oxidation was measured by gas chromatography by monitoring depletion of methane from the headspace of 30 ml reaction vials. Oxygen consumption was measured polarographically as described by Arciero et al. (J. Biol. Chem. 258, 14981-14991, 1983). The bacterial suspension was supplemented with 100 μM formaldehyde before gas chromatographic assays for conversion of propene to propene oxide in order to allow adequate regeneration of NADH by endogenous formaldehyde and formate dehydrogenases. Gas chromatographic and polarographic assays of the methane monooxygenase system were performed as described by Fox et al. (Biochem. Biophys. Res. Comm. 154, 165-170, 1988). Unless explicitly stated, the specific activity values reported for the enzyme components are those observed during the hydroxylation reaction in the presence of optimal concentrations of the other components of the methane monooxygenase. The optimal concentrations were determined by varying the concentration of one component relative to fixed concentrations of the other two components. In routine polarographic assays of methane monooxygenase activity, furan is an acceptable substrate with characteristics which facilitate the assay. […]

For series [5], the target named is T3, methane monooxygenase (Methylococcus capsulatus, UniProt P22869).
T3 construct: methane monooxygenases isolated from the Type I organism, Methylococcus capsulatus (Bath); host or cells: Methylococcus capsulatus (Bath)
T3 sequence (P22869 whole entry, looked up): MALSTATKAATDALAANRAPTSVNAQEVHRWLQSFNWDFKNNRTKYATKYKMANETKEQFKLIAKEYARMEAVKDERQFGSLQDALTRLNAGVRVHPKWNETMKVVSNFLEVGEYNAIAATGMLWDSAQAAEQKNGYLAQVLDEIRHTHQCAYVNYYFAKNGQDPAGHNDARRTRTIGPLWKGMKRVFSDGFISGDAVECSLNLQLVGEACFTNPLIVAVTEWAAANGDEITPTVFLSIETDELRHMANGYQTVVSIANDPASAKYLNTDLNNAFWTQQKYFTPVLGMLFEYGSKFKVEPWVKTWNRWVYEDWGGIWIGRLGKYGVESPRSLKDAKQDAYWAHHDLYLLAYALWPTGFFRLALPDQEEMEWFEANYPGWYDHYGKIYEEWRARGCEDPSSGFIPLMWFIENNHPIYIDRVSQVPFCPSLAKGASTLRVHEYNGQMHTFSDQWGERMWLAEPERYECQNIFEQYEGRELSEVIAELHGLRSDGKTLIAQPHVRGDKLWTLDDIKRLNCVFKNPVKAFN
The conditions noted are these: Table II, purified component from Methylococcus capsulatus (Bath); cited from earlier work.

Take `CCC(C)C` [Isopentane]: in series [1], the “Relative Distribution (Percent), product 2-methyl-1-butanol” value is given as 25%; the “Relative Distribution (Percent), product 2-methyl-2-butanol” value is recorded as 41%; the “Relative Distribution (Percent), product 3-methyl-1-butanol” value turned out to be 11%; the “Relative Distribution (Percent), product 3-methyl-2-butanol” value came out at 24%. Take `O=[N+]([O-])c1ccccc1` [Nitrobenzene]: in series [1], the “Relative Distribution (Percent), product m-Nitrophenol” value is listed as 53%; the “Relative Distribution (Percent), product o-Nitrophenol” value turned out to be 5%; the “Relative Distribution (Percent), product p-Nitrophenol” value worked out at 42%. As for `c1ccccc1` [Benzene], the “Relative Distribution (Percent), product Phenol” value in series [1] stood at 100%. Take `C` [Methane]: the “Relative Distribution (Percent), product Methanol” value in series [1] (about 100 mM H2O2, 2 minutes) was 100%. As to Fe2 O(OAc)2 Cl2 (bipy)2, the “yield of 2-propanol from propane” value in series [2] is given as 8.8%. For `CCCC` [Butane], in series [1], the “Relative Distribution (Percent), product 1-butanol” value is on record as 64% and the “Relative Distribution (Percent), product 2-butanol” value worked out at 36%.

Regarding `CC` [Ethane], the “Relative Distribution (Percent), product Ethanol” value in series [1] was determined as 100%. With `CCC` [Propane], in series [1], the “Relative Distribution (Percent), product 1-propanol” value came to 15% and the “Relative Distribution (Percent), product 2-propanol” value stood at 85%. `CC(C)C` [Isobutane]: in series [1], the “Relative Distribution (Percent), product 2-methyl-1-propanol” value was 61% and the “Relative Distribution (Percent), product 2-methyl-2-propanol” value came out at 39%. By solubility is commonly meant the concentration that dissolves in the medium under given conditions. Usually Km stands for the substrate concentration at which the rate is half of its maximum. In series [3], `c1ccoc1` [furan] came in with a solubility of 64 mM (≈ 4360 µg/mL). In addition, the Km in series [4] (read-out: KM(app)) is 0.02 mM. The turnover number in series [4] (relative to the hydroxylase) turned out to be 7.6 s⁻¹. For the compound `CC1(C)CC1` [1,1-dimethylcyclopropane], in series [1], the “Relative Distribution (Percent), product 1-methylcyclobutanol” value was found to be 14%; the “Relative Distribution (Percent), product 3-methyl-3-buten-1-01” value is given as “none detected”; the “Relative Distribution (Percent), product Methylcyclopropylmethanol” value amounted to 86%. Consider `C=CC` [Propene], for which, in series [1], the “Relative Distribution (Percent), product Propylene Oxide” value stood at 100%. As for “reductase from Methylococcus capsulatus (Bath): literature reductase, Colby et al. 1979”, in series [5], the Specific activity is recorded as 6000. For the compound `c1ccncc1` [Pyridine], the “Relative Distribution (Percent), product Pyridine-N-oxide” value in series [1] is 100%.
